Laboratory results published in article PMC11083148, “Structure–Activity Relationship Studies on Highly Functionalized Pyrazole Hydrazones and Amides as Antiproliferative and Antioxidant Agents” (International Journal of Molecular Sciences, 2024).
Values joined by “and” are separate entries in the source; they are usually repeats but may differ in a detail not shown here. Identical values can stand only once.

How the values were obtained:
A549 = experiment: MTT assay, antiproliferative activity; assay type: cell-based; conditions: Homo sapiens, 48h, read-out: Mean Growth Percentage
Method: (§1) Pyrazole acylhydrazones 10–13 and amides 14–22 were tested by MTT assay to evaluate their antiproliferative and cytotoxicity properties against a panel of eight tumor cell lines and normal fibroblasts.
(§2) All reagents were purchased from EuroClone, Milan, Italy). The following cell lines were used for MTT assays: SKOV-3 (ovarian adenocarcinoma, ATCC, Manassas, VA, USA); MCF-7 (breast adenocarcinoma, Biologic Bank and Cell Factory, IRCCS Policlinico San Martino, Genoa, Italy); Hep-G2 (hepatocellular carcinoma, ATCC, Manassas, VA, USA); SK-MEL28 (skin melanoma, Biologic Bank and Cell Factory, IRCCS Policlinico San Martino, Genoa, Italy), GM-6114 (embryonic human fibroblast, ATCC, Manassas, VA, USA); MDA-MB231 (breast adenocarcinoma, Biologic Bank and Cell Factory, IRCCS Policlinico San Martino, Genoa, Italy); HeLa (cervical adenocarcinoma, Biologic Bank and Cell Factory, IRCCS Policlinico San Martino, Genoa, Italy); SK-BR3 (breast andenocarcinoma, Biologic Bank and Cell Factory, IRCCS Policlinico San Martino, Genoa, Italy); A549 (lung carcinoma, Biologic Bank and Cell Factory, IRCCS Policlinico San Martino, Genoa, Italy); HUVEC (Human Umbilical Vein Endothelial Cells, ATCC, Manassas, VA, USA). All cell lines were grown in their medium with 10% FBS, 2 mM Glutamine, and 1% penstrep and incubated at 37 °C in 5% CO2 in a humidified environment. The cell lines were plated in 96-well plates at an adequate number to reach 80–90% confluence at the end of the assay. 16 h after cell plating, a 10 mM DMSO stock solution of the compounds was diluted in growth medium and added at a final working concentration of 10 μM. After 48h of incubation, a 2 mg/mL PBS solution of MTT (3-(4,5-dimethyl-2-thiazolyl)-2,5-diphenyl-2H-tetrazolium bromide) was added (30 μL/well). After 4h, the supernatant was removed, and the Formazan precipitates were dissolved in DMSO (100 μL/well). The 96-well plates were incubated for 20 min, and absorbance was measured at 570 nm using a plate reader. The results are expressed as a percentage ratio over control samples (100%) in which the cells were incubated with the same amount of DMSO but without compounds. Each value is the mean of three independent experiments run in six replicates.

Hep-G2 = experiment: MTT assay, antiproliferative activity; assay type: cell-based; conditions: Homo sapiens, HepG2, 48h
Method: as §1, §2

MDA-MB231 = experiment: MTT assay, antiproliferative activity; assay type: cell-based; conditions: Homo sapiens, MDA-MB-231, 48h
Method: as §1, §2

SK-BR3 = experiment: MTT assay, antiproliferative activity; assay type: cell-based; conditions: Homo sapiens, SK-BR-3, 48h
Method: as §1, §2

[1] = DPPH radical-scavenging activity; assay type: physicochemical; design: AA (%), percentage of antioxidant activity: concentration or dose not given beside the values; conditions: mean ± SD, n = 2
Method: The antioxidant activity of the representative compounds of the two series (namely, acylhydrazones 10b, 11a, 11d, 12d, 13d, and amides 14, 22) was measured in vitro using the 2,2-diphenyl-1-picrylhydrazyl (DPPH) assay. The results were calculated as Trolox equivalent and expressed as a percentage of antioxidant activity (AA) (Table 3). […] Derivatives 10b and 12d were endowed with the highest antioxidant activity, thus highlighting the relevance of both pyrazole N1 and acylhydrazone substituents on compounds’ radical scavenging properties.
Compounds 10b, 11a, 11d, 12d, 13d, 14, and 22 (ca. 3 mg) were dissolved in DMSO (1 mL), and then 100 µL of this solution was mixed with 3.9 mL of DPPH methanol solution (65 µM). Absorbance was measured at 517 nm after reacting for 30 min in the dark. The linear calibration curve was obtained using Trolox standards (ranging between 20 and 200 mg/L, R^2 = 0.9955). The result was calculated as Trolox equivalent in mg/L, and the percentage of antioxidant activity (AA%) was calculated from the ratio of decreasing absorbance of sample solution (A0 − As) to absorbance of blank DPPH solution (A0), as expressed in Equation (1). (1) AA%=A0−As/A0×100
All analyses were carried out in duplicate (n = 2), and values are given as means ± standard deviation (SD).

washed platelets [2] = experiment: Platelet aggregation (thrombin-induced, Born's method); assay type: cell-based; conditions: Homo sapiens, 0.1 U/mL thrombin, mean ± SD, read-out: IC50 Aggregation inhibition
Method: (§3) The antioxidant properties of acylhydrazones 10–13 and pyrazolyl amides 14–22 were tested by evaluating their inhibition of platelet aggregation and ROS production (Figure 3, Table S1). In fact, human platelets could represent a fast and low-cost biological model to screen compounds as anticancer, anti-inflammatory, and antiaggregating agents. Moreover, ROS production inhibition, related to human platelet aggregation, could provide a good indication of the anti-inflammatory and antioxidant properties of the newly synthesized compounds [47, 50, 51, 52]. N-acetylcysteine (NAC) and acetyl salicylic acid (ASA) were used as reference drugs for antioxidant and antiaggregant activities, respectively.
(§4) Freshly drawn venous blood from healthy volunteers from “Centro Trasfusionale” (IRCCS Policlinico San Martino, Genoa, Italy) was collected into a 130 mM aqueous trisodium citrate anticoagulant solution (9:1). The donors claimed to not have taken drugs known to interfere with platelet function during the two weeks prior to blood collection and gave their informed consent. Whole blood was centrifuged at 100× g for 20 min to afford platelet-rich plasma that was then spun at 1100× g for 15 min. The obtained pellet was washed once with a pH 5.2 ACD solution (75 mM trisodium citrate, 42 mM citric acid, and 136 mM glucose), centrifuged at 1100× g for 15 min, and then re-suspended in pH 7.4 Hepes buffer (145 mM NaCl, 5 mM KCl, 1 mM MgSO4, 10 mM glucose, and 10 mM HEPES).
Thrombin was purchased from Sigma-Aldrich/Merck Millipore. A DMSO solution of compounds 10–22 was diluted in saline immediately before each experiment and added to the washed platelets (3.0 × 10^8/mL) at 37 °C. After 3 min, 0.1 U/mL thrombin was added, and platelet aggregation was quantified according to Born’s method using a Bio-Data Aggregometer (Bio-Data Corporation, Horsham, PA, USA). The IC50 values were calculated as detailed above.

washed platelets [3] = experiment: ROS assay in platelets (DCFH-DA, thrombin-stimulated); assay type: cell-based, human; conditions: Homo sapiens, Platelet, 0.1 U/mL thrombin, mean ± SD, read-out: IC50 ROS production inhibition
Method: as §3, §4
2′,7′-Dichlorofluorescein diacetate (DCFH-DA) and thrombin were purchased from Sigma-Aldrich/Merck Millipore. DMSO solutions of 10–22 were diluted in saline immediately before each experiment. ROS production was quantified by DCFH-DA, a ROS-sensitive probe that yields, upon oxidation, the fluorescent adduct DCF that is trapped inside the cells. Briefly, washed platelets (1.0 × 10^8/mL), pre-incubated with saline solutions of 10–22 for 15 min at 37 °C, were stimulated by 0.1 U/mL thrombin. Incubation was stopped by cooling samples in an ice bath, and then samples were immediately analyzed in a Merck Millipore Bioscience Guava easyCyte flow cytometer (Merk Millipore, Burlington, MA, USA). The reported IC50 values represent the molar concentration of the compounds able to inhibit 50% of the maximal aggregation induced by the agonist and are calculated as the percentage inhibition of the maximal aggregation measured in the presence of the agent compared with the measure in a control sample containing saline, carried out under the same conditions. The IC50 values were extrapolated from nonlinear regression analysis of concentration–response curves (three points) using MS Excel software (Microsoft 365 suite). Each IC50 value is the mean of six independent experiments.

SKOV3 = experiment: MTT assay, antiproliferative activity; assay type: cell-based; conditions: Homo sapiens, SK-OV-3, 10 µM, 48h
Method: as §1, §2
(§5) Each IC50 value is the mean of three independent experiments run in duplicate.

MCF7 = experiment: MTT assay, antiproliferative activity; assay type: cell-based; conditions: Homo sapiens, 10 µM, 48h
Method: as §1, §2, §5

HeLa = experiment: MTT assay, antiproliferative activity; assay type: cell-based; conditions: Homo sapiens, 10 µM, 48h, read-out: Mean Growth Percentage
Method: as §1, §2, §5

SKMEL28 = experiment: MTT assay, antiproliferative activity; assay type: cell-based; conditions: Homo sapiens, SK-MEL-28, 10 µM, 48h
Method: as §1, §2, §5

GM-6114 = experiment: MTT assay, cytotoxicity on normal fibroblasts; assay type: cell-based; conditions: human, 48 h, 10 µM

| SMILES | activity at 10 µM (A549) [%] | Mean growth percentage at 10 µM (Hep-G2) [%] | Mean growth percentage at 10 µM (MDA-MB231) [%] | Mean growth percentage at 10 µM (SK-BR3) [%] | AA (%), percentage of antioxidant activity [1] | DPPH (%) [1] [%] | IC50 (washed platelets [2]) [µM] | IC50 (washed platelets [3]) [µM] | Mean growth percentage at 10 µM (SKOV3) [%] | mean growth percentage (cell growth remaining vs control) at 10 µM (MCF7) [%] | activity at 10 µM (HeLa) [%] | Mean growth percentage at 10 µM (SKMEL28) [%] | Mean Growth Percentage (GM-6114) [%] | melting point [°C] |
| --- | --- | --- | --- | --- | --- | --- | --- | --- | --- | --- | --- | --- | --- | --- |
| COc1ccc(/C=N/NC(=O)c2c(N)n[nH]c2Nc2ccccc2)cc1OC [10b, (E)-3-amino-N′-(3,4-dimethoxybenzylidene)-5-(phenylamino)-1H-pyrazole-4-carbohydrazide] | 91.1 | 115 | 100 | 91.6 | 76.45% and 76.45 ± 0.39% | 23.55 ± 0.39 | 94 ± 7 | 104 ± 4 | 114 | 95.3 | 105 | 94.5 | 107.36 | – |
| CCOC(=O)c1c(NC(=O)c2ccc(Cl)cc2)nn(C)c1Nc1ccccc1 [compound 18, Ethyl 3-(4-chlorobenzamido)-1-methyl-5-(phenylamino)-1H-pyrazole-4-carboxylate] | 69.6 | 78.5 | 141 | 80.9 | – | – | 268 ± 25 | 273 ± 17 | 96.9 | 63.5 | 91.5 | 68.4 | 72.99 | 158 to 161 |
| CCOC(=O)c1c(NC(=O)c2ccc(OC)cc2)nn(C)c1Nc1ccccc1 [compound 19, Ethyl 3-(4-Methoxybenzamido)-1-methyl-5-(phenylamino)-1H-pyrazole-4-carboxylate] | 92.9 | 105 | 136 | 103 | – | – | 294 ± 26 | 293 ± 18 | 97.3 | 95.2 | 124 | 85.2 | 66.69 | 143 to 145 |
| CCOC(=O)c1c(NC(=O)c2c(OC)cccc2OC)nn(C)c1Nc1ccccc1 [compound 20, Ethyl 3-(2,6-dimethoxybenzamido)-1-methyl-5-(phenylamino)-1H-pyrazole-4-carboxylate] | 70.8 | 108 | 124 | 106 | – | – | 301 ± 24 | 289 ± 27 | 84.4 | 92.1 | 111 | 83.6 | 64.71 | 158 to 160 |
| CCOC(=O)c1c(NC(=O)c2ccc(OC)c(OC)c2)nn(C)c1Nc1ccccc1 [compound 21, Ethyl 3-(3,4-dimethoxybenzamido)-1-methyl-5-(phenylamino)-1H-pyrazole-4-carboxylate] | 112 | 97.9 | 149 | 107 | – | – | 278 ± 27 | 262 ± 13 | 90.2 | 90.3 | 108 | 84.6 | 85.88 | 186 to 187 |
